Source: paper PMC12020424, “Identification and Validation of Cyclic Peptides with Mucin-Selective, Location-Specific Binding in the Gastrointestinal Tract” (ACS Nano, 2025)
Bridge positions count the residues as written; N and C are the ends. Ends that are not written are not given here.

Biological target: MUC2 (Homo sapiens, UniProt Q02817)
Test: Phage display (CX7C library) against MUC2, Sanger sequencing
Format: binding
Settings: for % Prevalence: MUC2 phage screening, CX7C library, third round of panning, 16 sequenced candidates
Experimental: For each mucin of interest, 5 μg of mucin protein was diluted in 150 μL of Tris-buffered saline (TBS) and added to 2 wells of a microtiter plate. The plate was left overnight in a humidified, sealed container with agitation at 50 rpm. After the overnight mucin coating, the solution was poured out, and 300 μL of blocking buffer was added to the wells for 1 h. After the 1 h waiting period, the blocking buffer was poured out, and the wells were washed three times with 300 μL of Tris-buffered saline with TBST (TBS + 0.1% (v/v) Tween-20) to remove nonspecific binding on the mucin layer coating. Next, 5 μL of the C7C library diluted with 95 μL of TBST was added to each blocked well and placed on shaker for 45 min, before pouring out the nonbinding phage and washing the plate ten times with TBST. A 0.2 M glycine-HCl elution buffer (pH 2.2, 100 μL) was added to each well and placed on a shaker for 20 min to release the mucin-layer binding peptides on the plate as unamplified eluate, with the pH neutralized by 30 μL of neutralization buffer (1 M Tris-HCl, pH 9).
E. coli liquid cultures were prepared by adding E. coli cells to 20 mL of LB media and placing them in shaking conditions at 37 °C and 250 rpm for 2 h and 45 min. The unamplified eluate (1 μL of which was saved for titering) was added to the E. coli cultures under the same conditions for 4 h and 45 min for amplification. After amplification, the cultures were centrifuged for 10 min at 12,000 g RCF at 4 °C, and the supernatant was collected and spun again under the same conditions for 5 min. The top 16 mL of supernatant was collected and mixed with 4 mL of PEG/NaCl (20% (w/v) PEG-8000/2.5 M NaCl in water) to promote precipitation of the mucin-binding peptide-containing phage and left overnight.
Titering was performed to measure the amount of phages present in the solution. From the obtained unamplified eluate, 1 μL of unamplified eluate was added to 999 μL of LB solution to obtain a 10³ dilution. […]

% Prevalence	repeated peptide hits (number of phage candidates) (phage display against MUC2, Sanger sequencing)	Sequence
25%	4 of 16	CAKHRIMLC (disulfide 1-9 (inferred)) [Peptide M2.1, CX7C cyclic peptide hit for MUC2; AF647 conjugated at N-terminus in ex vivo tests]
6.25%		CTDKASSSC (disulfide 1-9 (inferred)) [Peptide M2.2, CX7C cyclic peptide hit for MUC2]
